Results taken from patent US20050101595A1, “N-containing cycloalkyl-substituted amino-thiazole derivatives and pharmaceutical compositions for inhibiting cell proliferation and methods for their use” (PFIZER INC., priority 2003, published 2005).
pIC50, pKi: −log10 of the molar value. Like-named read-outs stand apart in the source and are kept apart here.

Legend:
[1] = target: CDK2/Cyclin A (Homo sapiens, UniProt P24941); assay: Inhibition of CDK2/Cyclin A Retinoblastoma Kinase Activity; format: biochemical; conditions: for pKi: apparent Ki, CDK2/proteolyzed cyclin A, Rb fragment substrate, 25 μM ATP
Procedure, shortened: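 Percent inhibition is calculated against DMSO-only wells after subtracting no-enzyme background. The enzyme is human CDK2 complexed with proteolyzed cyclin A, used at 10 nM or 19 nM on an Rb fragment with 25 μM [32/33P]ATP, at pH 7.4 and 30° C.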

[2] = target: human CDK4 and genetically truncated (1-264) cyclin D3 (Homo sapiens, UniProt P11802); assay: Inhibition of CDK4/Cyclin D Retinoblastoma Kinase Activity; format: biochemical; conditions: for pKi: apparent Ki, CDK4/truncated cyclin D3, Rb fragment substrate, 25 μM ATP
human CDK4 and genetically truncated (1-264) cyclin D3, sequence (P11802 whole entry, the tested form may be a part): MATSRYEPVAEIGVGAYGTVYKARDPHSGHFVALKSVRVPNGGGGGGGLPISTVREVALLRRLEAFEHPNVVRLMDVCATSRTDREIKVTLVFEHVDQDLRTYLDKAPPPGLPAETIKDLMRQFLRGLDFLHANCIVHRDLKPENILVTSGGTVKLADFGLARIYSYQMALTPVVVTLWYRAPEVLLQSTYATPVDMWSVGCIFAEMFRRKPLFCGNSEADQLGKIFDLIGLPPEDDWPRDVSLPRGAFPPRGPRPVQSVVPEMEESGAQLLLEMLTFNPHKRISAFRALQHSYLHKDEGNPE
human CDK4 and genetically truncated (1-264) cyclin D3, sequence (P30281 1-264 partner): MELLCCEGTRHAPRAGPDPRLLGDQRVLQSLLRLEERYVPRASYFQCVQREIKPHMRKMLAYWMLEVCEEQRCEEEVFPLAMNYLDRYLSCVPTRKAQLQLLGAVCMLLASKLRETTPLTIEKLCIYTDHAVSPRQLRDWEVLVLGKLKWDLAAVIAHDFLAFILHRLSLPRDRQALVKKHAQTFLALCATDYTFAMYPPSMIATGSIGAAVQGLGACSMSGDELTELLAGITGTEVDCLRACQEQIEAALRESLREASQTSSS
Procedure, shortened: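 Apparent Ki values derive from fitting activity at varied inhibitor concentrations to a competitive (or competitive tight-binding) model. Kinase reactions used 5 nM CDK4/cyclin D3(1-264), Rb fragment substrate and 25 μM ATP. Incubation ran 20 min at 30 °C, extended to 60 min under linear conditions for tight binders.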

[3] = system: HCT-116 cell line; assay: Inhibition of cell growth, tetrazolium salt (MTT) assay; format: cell-based; conditions: for pIC50: Homo sapiens, HCT-116, 120 h, MTT, three to five days, read-out: HCT-116 IC50; for HCT-116 % Inhibition at 0.25 μM: 0.25 μM compound
Procedure, shortened: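 HCT-116 cells in McCoy's 5A medium received compound 4 h after plating (0.5% v/v DMSO) and were incubated three to five days at 37° C, 5% CO2. MTT (0.2 mg/mL final) then added for 4 h; DMSO-solubilized formazan read at 540 nm against 0.5% DMSO-treated controls.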

[4] = 0.1 μM compound, HCT-116, Table 3

| CDK2 % Inhibition at 0.03 μM ([1]; at 0.03 μM) | CDK4 % Inhibition at 0.03 μM ([2]; at 0.03 μM) | pKi [1] | pKi [2] | pIC50 ([3]; first HCT-116 column (c4)) | pIC50 ([3]; second HCT-116 column (c5)) | Compound | HCT-116 % Inhibition at 0.1 μM ([3]; HCT-116 cells, at 0.1 μM) | HCT-116 5 Inhibition at 0.25 μM ([3]; HCT-116 cells) | further results |
| --- | --- | --- | --- | --- | --- | --- | --- | --- | --- |
| 49% | 67% | – | – | – | – | COc1ccc(C(=O)N2CCC(Nc3nc(N)c(C(=O)c4c(F)cccc4F)s3)CC2)c(OC)c1 [Example R116] | 9% | 44 | – |
| – | – | 7.12 | 6.47 | 5.80 | 5.59 | N#Cc1ccc(S(=O)(=O)N2CCCC(Nc3nc(N)c(C(=O)c4c(F)cccc4F)s3)C2)cc1 (stereo not drawn) [Example F35, 4-{3-[4-Amino-5-(2,6-difluoro-benzoyl)-thiazol-2-ylamino]-piperidine-1-sulfonyl}-benzonitrile] | – | – | – |
| −24% | 13% | – | – | – | – | COC(=O)CC(=O)N1CCC(Nc2nc(N)c(C(=O)c3c(F)cccc3F)s2)CC1 [Example R2] | 1% | 49 | – |
| – | – | – | – | – | – | Nc1nc(NC2CCN(C(=O)Nc3cccc(Br)c3)CC2)sc1C(=O)c1c(F)cccc1F [Example O12] | – | – | CDK2 % Inhibition At 0.03 μM ([1]; 0.03 μM compound, Table 2): 31%; CDK4 % Inhibition at 0.03 μM ([2]; 0.03 μM compound, Table 2): 3%; HCT-116 % Inhibition at 0.25 μM ([3]; HCT-116, Table 2): 25% |
| – | – | – | – | – | – | CN(C)S(=O)(=O)N1CCC(Nc2nc(N)c(C(=O)c3c(F)cccc3F)s2)CC1 [Example P7] | – | – | CDK2 % Inhibition at 0.03 μM ([1]; 0.03 μM compound, Table 3): 49%; CDK4 % Inhibition at 0.03 μM ([2]; 0.03 μM compound, Table 3): 47%; HCT-116 % Inhibition at 0.1 μM [3, 4]: 25%; HCT-116 % Inhibition at 0.25 μM ([3]; HCT-116, Table 3): 23% |
| – | – | 7.92 | 7.85 | 5.85 | 5.35 | Cc1noc(C)c1S(=O)(=O)N1CCC(Nc2nc(N)c(C(=O)c3c(F)cccc3F)s2)CC1 [Example F1] | – | – | – |
| – | – | 7.49 | 8.17 | 6.00 | 5.30 | Nc1nc(NC2CCN(S(=O)(=O)CCc3ccncc3)CC2)sc1C(=O)c1c(F)cccc1F [Example F27, 1-{4-Amino-2-[1-(2-pyridin-4-yl-ethanesulfonyl)-piperidin-4-ylamino]-thiazol-5-yl}-1-(2,6-difluoro-phenyl)-methanone] | – | – | – |
| 42% | 58% | – | – | – | – | COc1cccc(C(=O)N2CCC(Nc3nc(N)c(C(=O)c4c(F)cccc4F)s3)CC2)c1OC [Example R115] | 0% | 49 | – |
| 44% | 63% | – | – | – | – | Nc1nc(NC2CCN(C(=O)c3ccc(Cl)cc3Cl)CC2)sc1C(=O)c1c(F)cccc1F [Example R107] | 8% | 48 | – |
| – | – | – | – | – | – | CN(C(=O)N1CCC(Nc2nc(N)c(C(=O)c3c(F)cccc3F)s2)CC1)c1ccccc1 [Example Q1] | – | – | CDK2 % Inhibition at 0.03 μM ([1]; 0.03 μM compound, Table 4): −7%; CDK4 % Inhibition at 0.03 μM ([2]; 0.03 μM compound, Table 4): 31%; HCT-116 % Inhibition at 0.1 μM ([3]; 0.1 μM compound, HCT-116, Table 4): 0%; HCT-116 % Inhibition at 0.25 μM ([3]; HCT-116, Table 4): 38% |
| 33% | 51% | – | – | – | – | CCCc1c(C(=O)N2CCC(Nc3nc(N)c(C(=O)c4c(F)cccc4F)s3)CC2)cnn1-c1ccccc1 [Example R71] | 0% | 44 | – |
| – | – | – | – | – | – | Nc1nc(NC2CCN(S(=O)(=O)c3cccc([N+](=O)[O-])c3)CC2)sc1C(=O)c1c(F)cccc1F [Example P11] | – | – | CDK2 % Inhibition at 0.03 μM ([1]; 0.03 μM compound, Table 3): −23%; CDK4 % Inhibition at 0.03 μM ([2]; 0.03 μM compound, Table 3): 22%; HCT-116 % Inhibition at 0.1 μM [3, 4]: 19%; HCT-116 % Inhibition at 0.25 μM ([3]; HCT-116, Table 3): 27% |
| – | – | 7.09 | 7.96 | 6.10 | 5.70 | COC(=O)c1ccc(C(=O)N2CCC(Nc3nc(N)c(C(=O)c4c(F)cccc4F)s3)CC2)cc1 [Example C4, 4-{4-[4-Amino-5-(2,6-difluoro-benzoyl)-thiazol-2-ylamino]-piperidine-1-carbonyl}-benzoic Acid Methyl Ester] | – | – | – |
